Results from US6828348B2, “L-ascorbic acid-2-o-maleic acid-a-tocopherol diester 1-propanol adduct and process for producing the same” (Senju Pharmaceutical Co., Ltd., priority 2002, dated 2004).
Like-named read-outs stand apart in the source and are kept apart here.

Columns and labels:
[1] = 4 weeks, liquid chromatography
Experimental: The experimental conditions are as follows:
Detector: Ultraviolet absorptiometer (wave length: 220 nm)
Column: A stainless steel tube of 6 mm ID and 15 cm length being packed with octadecylated silica gel of […] in particle size designed for use in liquid chromatograph.
Mobile phase: As prepared by dissolving 0.4 g of crystalline sodium dihydrogenphosphate and 0.3 g of sodium chloride in 50 ml of water, and adding 500 ml of methanol and 450 ml of acetonitrile, followed by addition of phosphoric acid to adjust to pH 4.0.
Flow rate: As regulated so that the retention time may be about 12 min.

[2] = target: T1, elastase originated from human white blood cells (Homo sapiens, UniProt P08246); test: Elastase inhibitory activity (fluorogenic synthetic substrate); format: biochemical
T1 construct: elastase originated from human white blood cells; from tissue; host or cells: human white blood cells
T1 sequence (P08246 30-247 limits assumed): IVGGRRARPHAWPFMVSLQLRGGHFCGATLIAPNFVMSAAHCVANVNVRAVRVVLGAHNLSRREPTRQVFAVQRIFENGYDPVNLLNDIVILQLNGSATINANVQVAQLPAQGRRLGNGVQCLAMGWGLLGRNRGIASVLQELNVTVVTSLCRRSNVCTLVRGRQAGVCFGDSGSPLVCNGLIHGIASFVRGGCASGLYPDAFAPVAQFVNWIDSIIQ
Excerpt: are the reversibly extensible, highly elastic protein that is principal constituent of elastic fibers to maintain the extensibility and elasticity of the skin. […] are degraded and synthesized in the sustainable manner, thus acting to maintain the extensibility and elasticity of the skin, but may lose their extensibility and elasticity, when the rate of their degradation by elastase owing to aging, etc. exceeds the rate of their synthesis. Accordingly, inhibition of the elastase enables the skin to maintain its extensibility and elasticity. Such being the case, the Compound of the present invention is tested for its elastase inhibitory activity in the following manner: […] Testing method […]

Row | Molecule | Residual ratio ([1]; storage at 4° C.) [%] | Residual ratio ([1]; storage at 40° C.) [%] | Residual ratio ([1]; storage at 50° C.) [%] | Elastase inhibitory activity (in words) ([2]; 0.01 to 1 mM, Table 2) | Ratio of elastase inhibition ([2]; test specimen 0.01 mM) | Ratio of elastase inhibition ([2]; test specimen 0.1 mM) | Ratio of elastase inhibition ([2]; test specimen 1 mM)
1 | CCO.Cc1c(C)c2c(c(C)c1OC(=O)/C=C\C(=O)OC1=C(O)[C@@H]([C@@H](O)CO)OC1=O)CCC(C)(CCCC(C)CCCC(C)CCCC(C)C)O2 (stereo partly drawn) [Reference Example 1, L-Ascorbic acid-2-O-maleic acid-α-tocopherol diester.ethanol adduct] | 99.7 | 90.9 | 81.7 |  |  |  | 
2 | L-Ascorbic acid-2-O-maleic acid-α-tocopherol diester.1-propanol adduct [Example 1] |  |  |  | remarkable elastase inhibitory activity | 4 | 19 | 71
